# Results published in patent US7582602B2, “Hirulog-like peptide and gene therapy” (priority 2000, dated 2009).
# Entries after “also recorded” stand apart in the source; their conditions may differ.
# Tests used:
# [1] = Bleeding complications and side effects in rabbits; type: in vivo; settings: HLP 0.8 mg/kg/h for four hours
# Procedure: (§1) Influence of HLP on coagulation and haemorrhage. The levels of aPTT and microvascular bleeding time is determined in atherosclerotic rabbits receiving HLP, heparin, hirulog-1 or saline. The effects of optimized HLP treatment on coagulation and haemorrhage is also be examined in a group of uninjured rabbits on regular diet (n=10). The levels of aPTT is determined in blood withdrawn at 15 minutes after the start of the infusions using MLA Coagamate XM system in Haematology Laboratory. Microvascular bleeding time is determined by bleeding from a cut on ear at 1 minutes after the initiation of infusion as previously described (Blajchman et al, 1979). Incidence of bleeding complications in rabbits with various treatments is recorded. Autopsy is applied to every animal, including unexpected death, to examine the sign of haemorrhage in various organs and tissues.
# Impact of HLP on liver, kidney and myeloid functions. Peripheral blood is withdrawn before sacrifice from ear vein of normal or atherosclerotic rabbits with and without treatments for analysing complete blood counts, serum albumin, alanine transaminase and blood urea nitrogen (analysed in Dept of Clinical Chemistry) to determine the influence of HLP on liver, kidney and myeloid functions. HLP concentrations in blood is analysed to examine the relationship between blood concentrations and possible toxic effects of HLP. […]
# aPTT in rabbits = type: in vivo; settings: HLP treated rabbits
# Procedure: as §1
# Restenosis is responsible for the 30-40% long term failure rate following coronary revascularization. Thrombin inhibitors have been considered as one type of potential drug for the prevention of restenosis. […] The experiment was designed to examine the effect of HLP on restenosis of carotid arteries in atherosclerostic rabbits. Right carotid arteries of male New Zealand rabbits were subjected to air dessication. […]
# [2] = Induction of antibodies in rabbits; settings: rabbit, in vivo
# Procedure: Relationship between HLP concentrations and vascular response. The relationship between plasma concentrations and the anti-restenosis effect of HLP is analysed. Polyclonal antibodies against HLP-KLH conjugate were raised in rabbits by the applicants group. The antibodies specifically recognize HLP in plasma proteins using Western blotting analysis. A competitive immunoassay was developed to measure plasma levels of HLP. Relationship between the effect of HLP on restenosis and its blood concentrations is analysed, which helps evaluate the efficacy of HLP and the design of a proper regimen for HLP treatment to prevent restenosis.
# Effect of HLP on immune reactions. Since HLP is a peptide, it potentially induces immune reactions. HLP is a weak antigen. […] The possibility of HLP induces immune reactions in rabbits has not been excluded. Blood is withdrawn four weeks or six months after angioplasty and treatment with HLP, its analogues or saline, and determine the levels of serum C-reactive protein (Clinical Chemistry). Antibodies against HLP in blood are detected by immunodiffusion. Allergic reaction to HLP is monitored during and after the treatment.
# [3] = Haemorrhage, toxicity, liver and kidney function in rats; type: in vivo
# α-thrombin = biological target: T1, α-thrombin (Homo sapiens, UniProt P00734); experiment: Inhibition of enzymatic activity of thrombin (spectrozyme substrate); type: biochemical; settings: spectrozyme as substrate, relative to hirulog-1
# T1 construct: using α-thrombin and spectrozyme (American Diagnostica Inc., Greenwich, Conn.) as a substrate for thrombin
# Description: HLP keeps the sequence of the active sites of hirulog-1. The amino-terminal tail of HLP contains a region which is homology to a distal portion of the extracellular domain of the thrombin receptor. This region of HLP is structurally distinct from hirulog-19-20 (or HLP20-31) which aims the anion binding exosite of thrombin (Carmeliet P et al, 1997). HLP provides double-site of inhibition on the binding of thrombin to the thrombin receptor, which can more effectively reduce the activation of the […] and the cellular effects of thrombin. In addition, the amino-terminal sequence of HLP can affect the interaction of the inhibitor with the active site of thrombin in a manner different from hirulog-1. This structural difference between HLP and hirulog-1 on their amino terminal can partially explain the lower inhibition of HLP on coagulation. The amino terminal of HLP can be slowly cleaved by thrombin after the formation of complex with thrombin as hirulog-1 (Buchanan M R et al, 1999), which prevents the complete consumption of thrombin.
# [4] = Activated partial thromboplastin time (aPTT) in rats; type: in vivo; settings: for aPTT (second): mean±SD, n=4
# Procedure: Quantitative thrombin time (QTT) and activated partial thromboplastin time (aPTT): Plasma levels of hirulog-1 were estimated using QTT as previously described (Safian R D et al, 1990). Synthesized hirulog-1 (>90% of purity) was used as standard. The levels of aPTT in plasma were analyzed using a MLA 1000C Coagamate XM system in Haematology Laboratory, Health Sciences Centre, Winnipeg.
# (§2) The levels of aPTT in plasma were analyzed using MLA 1000C Coagamate XM system in Haematology Laboratory, Health Sciences Centre, Winnipeg. For the evaluation of bleeding time, 1 mm of tail tip was removed using a razor blade. Resultant wound was gently blotted with filter paper immediately after the cut and each 30-second thereafter until bleeding stopped. Periods between cutting and no blood blotted onto filter paper were defined as bleeding time (Ishiwata S et al, 1997, 20).
# [5] = Tail bleeding time in rats; type: in vivo; settings: for tail bleeding time during treatment versus control or basal levels: i.v. infusion
# Procedure: as §2
# baboon aortic SMC = experiment: Thrombin-induced 3H-thymidine incorporation assay; type: cell-based; settings: thrombin 10 U/ml
# Procedure: Baboon aortic SMCs (seed cells provided by Dr. A. W. Clowes, University of Washington, Seattle) were grown as previously described (Ishiwata S et al, 1999) and seeded in 12-well plates to sub-confluence. Sub-confluent cells were incubated with serum-free medium for 48 hours. Quiescent SMCs were stimulated with medium containing 1% fetal calf serum and 10 U/ml of thrombin in the absence and presence of HLP for 4 hours. The incubation was continued following the replacement of fresh medium supplemented with 10% serum in the absence of thrombin or its inhibitor for 14 hours. Finally, SMCs were incubated with 0.1 μCi/ml of 3H-thymidine (NEN, Boston, Mass.) in medium containing 10% of serum for 6 hours. At the end of the incubation, the cells were thoroughly washed with PBS then 5% ice-cold trichloroacetic acid, and harvested in 0.25 N NaOH (Safian R D et al, 1990). Radioactivity in aliquots of cell lysate was analyzed in scintillation counter. 3H-Thymidine incorporation was assessed by radioactivity in cell lysates following adjustment with cellular proteins in each well.
# [6] = human, in vivo; cited from earlier work
# [7] = system: hirulog-like peptide (HLP)
# [8] = rats, 6 months after HLP 1.6 mg/kg/h for 4 hours
# [9] = rats, 6 months after HLP treatment
# [10] = balloon injured rats, heparin 50 U/kg/h, hirulog-1 1 mg/kg/h, HLP 1.6 mg/kg/h [HLP(1.6)], 5 minutes after start of infusion
# [11] = tail, heparin 50 U/kg/h, hirulog-1 1 mg/kg/h, HLP 1.6 mg/kg/h [HLP(1.6)], 10 minutes after initiation of infusion, mean±SD, n=4
# hirulog-like peptide (HLP), sequence (chain, as listed by the source): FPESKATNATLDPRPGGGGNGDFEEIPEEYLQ
compound,measurement,setting,value
CC[C@H](C)[C@H](NC(=O)[C@H](CCC(=O)O)NC(=O)[C@H](CCC(=O)O)NC(=O)[C@H](Cc1ccccc1)NC(=O)[C@H](CC(=O)O)NC(=O)CNC(=O)[C@H](CC(N)=O)NC(=O)CNC(=O)CNC(=O)CNC(=O)CNC(=O)[C@@H]1CCCN1C(=O)[C@H](CCCNC(=N)N)NC(=O)[C@@H]1CCCN1C(=O)[C@H](CC(=O)O)NC(=O)[C@H](CC(C)C)NC(=O)[C@@H](NC(=O)[C@H](C)NC(=O)[C@H](CC(N)=O)NC(=O)[C@@H](NC(=O)[C@H](C)NC(=O)[C@H](CCCCN)NC(=O)[C@H](CO)NC(=O)[C@H](CCC(=O)O)NC(=O)[C@@H]1CCCN1C(=O)[C@@H](N)Cc1ccccc1)[C@@H](C)O)[C@@H](C)O)C(=O)N1CCC[C@H]1C(=O)N[C@@H](CCC(=O)O)C(=O)N[C@@H](CCC(=O)O)C(=O)N[C@@H](Cc1ccc(O)cc1)C(=O)N[C@@H](CC(C)C)C(=O)N[C@@H](CCC(N)=O)C(=O)O [HLP],HLP treated rabbits that suffered from bleeding complications,[1],None
same,aPTT in rabbits versus saline controls,aPTT in rabbits,did not significantly change; also recorded: not significantly prolonged
same,antigenicity / induction of detectable antibodies in rabbits,[2],weak antigen
same,toxic effect in rats,[3]; previous experiments,does not cause evident toxic effect
same,alanine transaminase versus control group,[3]; [8],No significant difference
same,blood urea nitrogen versus control group,[3]; [8],No significant difference
same,liver and kidney functions,[3]; [9],No significant change
same,haemorrhage / death from haemorrhage during infusion,"[3]; rats, heparin 50 U/kg/hours, HLP 1.6-3.2 mg/kg/hours",did not cause haemorrhage
same,"Ki on the enzymatic activity of thrombin, compared with hirulog-1",α-thrombin,two orders of magnitude greater; also recorded: two orders of magnitude higher
same,aPTT (second),"[4]; HLP 3.2 mg/kg/h [HLP(3.2)], 5 minutes after start of infusion",19.80 ± 1.65++xx second
same,aPTT (second),[4]; [10],20.80 ± 3.24++xx second
same,aPTT / coagulation activity during treatment versus control or basal levels,"[4]; rats, i.v. infusion","close to that infused with saline; also recorded: did not cause haemorrhage, the elongation of aPTT; also recorded: not significantly different from vehicle controls; also recorded: did not significantly differ; also recorded: did not prolong aPTT or bleeding time; also recorded: did not significantly alter coagulation activity"
same,tail bleeding time 6 months after treatment versus controls,[5]; [9],No significant change; also recorded: No significant difference
same,tail bleeding time during treatment versus control or basal levels,[5]; rats,"did not cause haemorrhage, the elongation of aPTT or bleeding time; also recorded: not significantly different from vehicle controls; also recorded: did not prolong aPTT or bleeding time"
same,Bleeding time (min),"[5]; tail, HLP 3.2 mg/kg/h [HLP(3.2)], 10 minutes after initiation of infusion, mean±SD, n=4",16.50 ± 1.58+x min
same,Bleeding time (min),[5]; [11],16.37 ± 1.55+x min
"CC[C@H](C)[C@H](NC(=O)[C@H](CCC(=O)O)NC(=O)[C@H](CCC(=O)O)NC(=O)[C@H](Cc1ccccc1)NC(=O)[C@H](CC(=O)O)NC(=O)CNC(=O)[C@H](CC(N)=O)NC(=O)CNC(=O)CNC(=O)CNC(=O)CNC(=O)[C@@H]1CCCN1C(=O)[C@H](CCCNC(=N)N)NC(=O)[C@@H]1CCCN1C(=O)[C@H](N)Cc1ccccc1)C(=O)N1CCC[C@H]1C(=O)N[C@@H](CCC(=O)O)C(=O)N[C@@H](CCC(=O)O)C(=O)N[C@@H](Cc1ccc(O)cc1)C(=O)N[C@@H](CC(C)C)C(=O)O [Hirulog-1, reference compound]",aPTT raised over basal levels,"[4]; 1 minute after injection of 1 mg/kg, uninjured and balloon injured rats",3- to 4 fold
same,aPTT (second),[4]; [10],52.38 ± 2.84**+ second
same,prolongation of aPTT during infusion,"[4]; heparin 50 U/kg/h, hirulog-1 1 mg/kg/h, 5 minutes after start of infusion",2- to 3 fold
same,aPTT / coagulation activity during treatment versus control or basal levels,"[4]; rats, i.v. infusion",significantly elongated
same,time after treatment beyond which aPTT was normalized,[4]; single injection of 1 mg/kg,> 30 min
same,aPTT versus basal levels,[4]; within 15 minutes after single injection of 1 mg/kg,higher than corresponding basal levels
same,tail bleeding time during treatment versus control or basal levels,[5]; rats,significantly prolonged; also recorded: significantly elongated
same,Bleeding time,[5]; [11],21.88 ± 1.55 min
Heparin [reference compound],aPTT / coagulation activity during treatment versus control or basal levels,"[4]; rat, in vivo, iv",greatly increased
Thrombin,increase of 3H-thymidine incorporation,baboon aortic SMC,43%
hirudin,frequency of major bleeding,[6],6%-7%
same,incidence of major bleeding complications at non-cranial sites,[6],7%
α-thrombin,thrombin-induced 3H-thymidine incorporation in baboon aortic SMC,[7],Treatment with 20 µM HLP significantly reduced thrombin-induced increase in 3H-thymidine incorporation in SMC (p<0.05) compared to cells treated with thrombin only
